Test results taken from the supplement of paper PMC10307832.

Legend:
Test in all cases: relative viability (nuclei count vs DMSO), 5 days (fraction); higher = more cells survive
[1] = compound: CCN(CC)CCNC(=O)c1c(C)[nH]c(/C=C2\C(=O)Nc3ccc(F)cc32)c1C [Sunitinib] + COc1cc2c(Oc3ccc(NC(=O)C4(C(=O)Nc5ccc(F)cc5)CC4)cc3F)ccnc2cc1OCCCN1CCOCC1 [Foretinib] (partner 0.25 µM)
Procedure, shortened: (§1)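 After 5 days of treatment, lung cancer cells in 1536-well plates were fixed and stained in a single step (final 0.05% Triton X-100, 1% formaldehyde, 1 ug/ml Hoechst) and their nuclei counted on 4× images. Treatment had been applied by pin tool the day after seeding as one drug alone or as a fixed anchor-drug dose with five library-drug doses (not always all listed) in √10 steps. Relative viability is the nuclei count of treated wells divided by that of vehicle wells, and values are medians of duplicate plates.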

[2] = compound: CCN(CC)CCNC(=O)c1c(C)[nH]c(/C=C2\C(=O)Nc3ccc(F)cc32)c1C [Sunitinib] + Nc1nc2[nH]cc(CCc3ccc(C(=O)N[C@@H](CCC(=O)O)C(=O)O)cc3)c2c(=O)[nH]1 [Pemetrexed] (partner 0.2 µM)
Procedure, shortened: as §1

[3] = compound: CCN(CC)CCNC(=O)c1c(C)[nH]c(/C=C2\C(=O)Nc3ccc(F)cc32)c1C [Sunitinib] + COc1cccc2cc(-c3nc([C@H]4CC[C@H](C(=O)O)CC4)n4ncnc(N)c34)[nH]c12 [OSI-027] (partner 0.5 µM)
Procedure, shortened: as §1

[4] = compound: CCN(CC)CCNC(=O)c1c(C)[nH]c(/C=C2\C(=O)Nc3ccc(F)cc32)c1C [Sunitinib] + NC(=O)Nc1cc(-c2cccc(F)c2)sc1C(=O)N[C@H]1CCCNC1 [AZD7762] (partner 0.2 µM)
Procedure, shortened: as §1

Cell Line	relative viability ([1]; first compound 0.02 µM)	relative viability ([1]; first compound 0.06325 µM)	relative viability ([1]; first compound 0.2 µM)	relative viability ([1]; first compound 0.6325 µM)	relative viability ([1]; first compound 2 µM)	relative viability ([2]; first compound 0.02 µM)	relative viability ([2]; first compound 0.06325 µM)	relative viability ([2]; first compound 0.2 µM)	relative viability ([2]; first compound 0.6325 µM)	relative viability ([2]; first compound 2 µM)	relative viability ([3]; first compound 0.02 µM)	relative viability ([3]; first compound 0.06325 µM)	relative viability ([3]; first compound 0.2 µM)	relative viability ([3]; first compound 0.6325 µM)	relative viability ([3]; first compound 2 µM)	relative viability ([4]; first compound 0.02 µM)	relative viability ([4]; first compound 0.06325 µM)	relative viability ([4]; first compound 0.2 µM)	relative viability ([4]; first compound 0.6325 µM)	relative viability ([4]; first compound 2 µM)
NCI-H2405	1.07	1.06	1.09	1.05	1.11	1.07	1.1	1.21	1.13	1.13	0.647	0.643	0.631	0.65	0.673	0.703	0.759	0.8	0.878	0.648
BEN	0.598	0.704	0.576	0.665	0.644	0.812	0.862	–	0.742	0.74	0.306	0.32	0.281	0.3	0.273	0.774	0.755	0.815	0.661	0.66
RERF-LC-KJ	0.873	0.907	0.903	0.87	0.919	0.472	0.483	0.485	0.418	0.49	0.55	0.574	0.689	0.626	0.525	0.959	1.05	1.04	0.932	1
NCI-H2085	0.851	–	1.02	0.957	0.935	0.909	–	1.04	0.952	0.87	0.761	0.768	0.73	0.96	1.06	0.965	0.976	1.12	1.07	1
201T	1.01	1.1	1.22	1.17	1.01	0.32	0.325	0.356	0.301	0.355	0.663	0.778	0.904	0.733	0.654	0.544	0.705	0.688	0.664	0.588
NCI-H1666	0.912	1	1.05	1.04	1.01	0.827	0.834	0.936	0.867	0.997	0.835	0.877	0.924	0.924	0.822	0.782	1.02	0.907	0.895	0.886
LU99A	0.731	0.894	0.931	1.01	0.91	0.199	0.185	0.198	0.151	0.162	0.289	0.297	0.287	0.329	0.317	0.334	0.311	0.343	0.325	0.368
LC-2-ad	0.868	0.949	0.952	0.99	0.861	0.266	0.275	0.291	0.303	0.26	–	0.844	0.944	0.818	0.614	0.796	0.889	0.983	0.844	0.873
EKVX	0.739	0.752	0.918	1.3	0.892	0.373	0.383	0.425	0.416	0.406	0.671	0.728	0.771	0.741	0.666	0.755	0.783	0.735	0.688	0.716
NCI-H1355	0.957	0.802	–	–	0.68	0.997	1.14	1.1	1.08	–	0.431	0.455	0.441	0.437	0.365	0.764	0.845	0.859	0.767	0.689
NCI-H838	1.04	1	1.14	1.08	0.826	0.239	0.258	0.263	0.243	0.228	0.386	0.358	0.423	0.319	0.317	0.956	0.907	1.01	0.993	0.884
NCI-H1915	1.07	1.11	1.14	1.13	1.15	0.428	0.486	0.499	0.527	0.484	0.605	0.645	0.71	0.612	0.618	0.678	0.741	0.601	0.749	0.75
NCI-H647	–	1.03	1.34	1.13	1.21	0.189	0.197	0.187	0.209	0.193	0.631	0.725	0.562	0.821	0.575	0.482	0.48	0.546	0.642	0.469
PC-3 [JPC-3]	–	1.05	1.12	1.02	1.01	1.35	1.08	1.13	1.11	1.03	0.807	0.773	0.743	0.82	0.754	0.844	0.79	0.845	0.827	0.865
NCI-H1793	0.649	0.675	0.753	0.723	0.593	–	–	1.29	0.949	0.831	0.278	0.245	0.252	0.274	0.194	–	0.448	0.44	0.377	0.334
NCI-H1993	0.746	0.691	0.789	0.685	0.73	0.436	0.563	0.584	0.55	0.575	0.598	0.482	0.551	0.568	0.554	0.723	0.757	0.782	0.761	0.845
ChaGo-K-1	0.852	0.906	1	0.914	0.869	0.263	0.268	0.258	0.255	0.258	0.494	0.685	0.577	0.663	0.579	0.892	0.885	0.984	0.915	0.88

Cell Line	relative viability ([1]; first compound 0.02 µM)	relative viability ([1]; first compound 0.06325 µM)	relative viability ([1]; first compound 0.2 µM)	relative viability ([1]; first compound 0.6325 µM)	relative viability ([1]; first compound 2 µM)	relative viability ([2]; first compound 0.02 µM)	relative viability ([2]; first compound 0.06325 µM)	relative viability ([2]; first compound 0.2 µM)	relative viability ([2]; first compound 0.6325 µM)	relative viability ([2]; first compound 2 µM)	relative viability ([3]; first compound 0.02 µM)	relative viability ([3]; first compound 0.06325 µM)	relative viability ([3]; first compound 0.2 µM)	relative viability ([3]; first compound 0.6325 µM)	relative viability ([3]; first compound 2 µM)	relative viability ([4]; first compound 0.02 µM)	relative viability ([4]; first compound 0.06325 µM)	relative viability ([4]; first compound 0.2 µM)	relative viability ([4]; first compound 0.6325 µM)	relative viability ([4]; first compound 2 µM)
NCI-H1437	1.24	1.25	1.28	1.22	1.32	0.336	0.329	0.345	0.309	0.322	0.873	0.918	–	0.855	0.885	1.09	1.14	1.15	1.13	1.07
NCI-H441	0.771	0.953	–	1.01	1.04	0.263	0.253	0.278	0.235	0.257	0.651	0.751	0.898	0.684	0.47	–	1.25	1.36	1.24	1.17
NCI-H322M	0.906	–	1.14	1.13	0.869	0.654	0.601	0.652	0.62	0.577	0.53	0.582	0.656	0.624	0.549	0.611	0.559	0.524	0.651	0.64
LOU-NH91	0.939	0.974	1.04	0.998	0.878	0.388	0.38	0.389	0.382	0.448	0.778	0.74	0.772	0.73	0.742	–	0.688	0.879	0.831	0.756
EPLC-272H	0.702	0.65	–	0.771	0.637	0.39	0.298	0.314	0.42	0.363	0.336	0.318	0.302	0.29	0.291	0.26	0.298	0.301	0.175	0.229
CAL-12T	1.07	1.27	1.32	1.03	1.28	1.06	1.17	1.17	–	1.34	0.665	0.695	0.748	–	0.397	0.648	0.663	0.65	0.731	0.76
NCI-H1755	0.891	0.897	0.959	0.981	0.936	0.427	0.502	0.636	0.407	0.52	0.745	0.821	0.743	0.748	0.761	0.414	0.478	0.53	0.408	0.421
NCI-H3122	0.904	0.963	1.04	0.976	0.97	0.201	0.215	0.202	0.185	0.205	0.874	–	1.06	0.917	0.69	0.933	1.08	1.01	0.999	1.01
H3255	0.782	0.573	0.819	0.861	1.01	0.557	0.558	0.567	0.552	0.612	0.66	0.583	0.645	0.621	0.666	0.968	0.888	–	0.871	0.871
LCLC-97TM1	0.926	–	1.13	0.991	0.926	0.167	0.198	0.164	0.163	0.212	0.553	0.59	0.598	0.48	0.473	0.265	0.163	0.234	0.224	0.288
NCI-H460	0.879	1.08	1.03	1.05	1.06	0.0562	0.061	0.0606	0.0589	0.0505	0.593	0.717	0.78	0.768	0.467	0.653	0.592	0.615	0.659	0.568
HCC-366	0.864	0.908	0.919	0.827	0.871	0.154	0.168	0.168	0.194	0.497	0.895	0.862	1.1	0.904	0.636	0.241	0.207	0.379	0.238	0.216
A-427	1.03	1.12	1.08	1.1	1.11	0.993	1	0.95	0.997	1.01	0.445	0.49	0.448	0.537	0.392	0.773	0.761	0.777	0.711	0.679
NCI-H2170	0.987	1.01	1.05	1.01	0.843	0.259	0.274	0.432	0.291	0.275	0.746	0.687	0.802	0.737	0.576	0.797	0.876	0.955	0.87	0.772
HCC-15	1.07	1.14	1.16	1.13	1.02	0.236	0.228	0.222	0.204	0.248	0.608	–	0.852	0.714	0.641	1.17	1.28	1.37	1.09	1.41
NCI-H2347	0.704	0.708	1.03	–	1.36	0.415	0.446	0.419	0.44	0.458	0.451	0.507	0.67	0.384	0.552	0.709	0.844	0.813	0.838	0.871
